Assay results taken from PubChem BioAssay AID328 (DTP/NCI, 2004).
Where “and” joins values, the source holds several entries; their conditions need not be identical. Equal entries are not always repeated. Inconclusive results and toxic doses are left out.

System: BDF1 mice, P388 leukemia ip, median survival T/C
Assay: NCI In Vivo Anticancer Drug Screen. Data for tumor model P388 Leukemia (intraperitoneal) in B6D2F1 (BDF1) mice
Conditions: endpoint: median survival time, higher = longer survival
Method in brief: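 In tumour-bearing mice, survival after compound treatment is set against the vehicle group and given as a quotient.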

[1] = dose: 50.0 mg/kg/injection, schedule: Q01DX009 (ip), vehicle: saline with Tween-80
[2] = dose: 100.0 mg/kg/injection, schedule: Q01DX009 (ip), vehicle: saline with Tween-80
[3] = dose: 100.0 mg/kg/injection, schedule: Q04DX003 (ip), vehicle: Klucel (hydroxypropylcellulose) (HPC)
[4] = dose: 200.0 mg/kg/injection, schedule: Q04DX003 (ip), vehicle: Klucel (hydroxypropylcellulose) (HPC)

CCOC(=O)CCC[P+](c1ccccc1)(c1ccccc1)c1ccccc1
T/C (dose: 5.0 mg/kg/injection, schedule: Q01DX009 (ip), vehicle: saline with Tween-80): 101 % of control | T/C (dose: 10.0 mg/kg/injection, schedule: Q01DX009 (ip), vehicle: saline with Tween-80): 100 % of control | T/C (dose: 13.2 mg/kg/injection, schedule: Q01DX009 (ip), vehicle: saline with Tween-80): 118 % of control | T/C (dose: 20.0 mg/kg/injection, schedule: Q01DX009 (ip), vehicle: saline with Tween-80): 101 % of control and 122 % of control | T/C (dose: 30.0 mg/kg/injection, schedule: Q01DX009 (ip), vehicle: saline with Tween-80): 118 % of control | T/C [1]: 113 % of control | T/C (dose: 75.0 mg/kg/injection, schedule: Q01DX009 (ip), vehicle: saline with Tween-80): 152 % of control | T/C [2]: 118 % of control | T/C (dose: 100.0 mg/kg/injection, schedule: Q04DX003 (ip), vehicle: saline with Tween-80): 110 % of control | T/C (dose: 160.0 mg/kg/injection, schedule: Q01DX009 (ip), vehicle: saline with Tween-80): 121 % of control | T/C (dose: 200.0 mg/kg/injection, schedule: Q04DX003 (ip), vehicle: saline with Tween-80): 115 % of control

CCCN=C(N)c1ccc(N=C(N)c2ccc(N=C(N)c3ccc(C(N)=NCCC)cc3)cc2)cc1
T/C (dose: 10.0 mg/kg/injection, schedule: Q01DX009 (ip), vehicle: saline): 154 % of control | T/C (dose: 15.0 mg/kg/injection, schedule: Q01DX009 (ip), vehicle: saline): 190 % of control

N#CCCCCCl
T/C (dose: 25.0 mg/kg/injection, schedule: Q01DX001 (ip), vehicle: saline): 90 % of control | T/C (dose: 50.0 mg/kg/injection, schedule: Q01DX001 (ip), vehicle: saline): 100 % of control | T/C (dose: 100.0 mg/kg/injection, schedule: Q01DX001 (ip), vehicle: saline): 95 % of control and 100 % of control

O=C1CCCCC1N1CCCCC1 (stereo not drawn)
T/C (dose: 50.0 mg/kg/injection, schedule: Q01DX005 (ip), vehicle: saline with Tween-80): 98 % of control | T/C (dose: 100.0 mg/kg/injection, schedule: Q01DX005 (ip), vehicle: saline with Tween-80): 105 % of control

CC(=O)OC1C=CC(=O)OC1C1OC1C (stereo not drawn)
T/C (dose: 3.0 mg/kg/injection, schedule: Q01DX010 (ip), vehicle: carboxymethylcellulose (CMC)): 90 % of control | T/C (dose: 6.0 mg/kg/injection, schedule: Q01DX010 (ip), vehicle: carboxymethylcellulose (CMC)): 90 % of control | T/C (dose: 12.0 mg/kg/injection, schedule: Q01DX010 (ip), vehicle: carboxymethylcellulose (CMC)): 100 % of control | T/C (dose: 25.0 mg/kg/injection, schedule: Q01DX010 (ip), vehicle: carboxymethylcellulose (CMC)): 109 % of control

CC(C(N)C(=O)O)C(O)c1ccc(O)cn1 (stereo not drawn)
T/C (dose: 45.0 mg/kg/injection, schedule: Q01DX009 (ip), vehicle: water): 109 % of control | T/C (dose: 90.0 mg/kg/injection, schedule: Q01DX009 (ip), vehicle: water): 102 % of control | T/C (dose: 180.0 mg/kg/injection, schedule: Q01DX009 (ip), vehicle: water): 102 % of control

CC(C)CCC[C@@H](C)[C@H]1CC[C@H]2[C@@H]3CC=C4C[C@@H](OC(=O)Cc5ccc(N(CCCl)CCCl)cc5)CC[C@]4(C)[C@H]3CC[C@]12C
T/C (dose: 6.25 mg/kg/injection, schedule: Q01DX010 (sc), vehicle: steriod suspending solution): 87 % of control | T/C (dose: 12.5 mg/kg/injection, schedule: Q01DX010 (sc), vehicle: steriod suspending solution): 91 % of control | T/C (dose: 25.0 mg/kg/injection, schedule: Q01DX010 (sc), vehicle: steriod suspending solution): 91 % of control | T/C (dose: 50.0 mg/kg/injection, schedule: Q01DX010 (oral), vehicle: steriod suspending solution): 104 % of control | T/C (dose: 50.0 mg/kg/injection, schedule: Q01DX010 (sc), vehicle: steriod suspending solution): 92 % of control | T/C (dose: 100.0 mg/kg/injection, schedule: Q01DX010 (oral), vehicle: steriod suspending solution): 118 % of control | T/C (dose: 100.0 mg/kg/injection, schedule: Q01DX010 (sc), vehicle: steriod suspending solution): 111 % of control | T/C (dose: 200.0 mg/kg/injection, schedule: Q01DX010 (sc), vehicle: steriod suspending solution): 107 % of control | T/C (dose: 400.0 mg/kg/injection, schedule: Q01DX010 (oral), vehicle: steriod suspending solution): 172 % of control | T/C (dose: 400.0 mg/kg/injection, schedule: Q01DX010 (sc), vehicle: steriod suspending solution): 100 % of control | T/C (dose: 800.0 mg/kg/injection, schedule: Q01DX010 (oral), vehicle: steriod suspending solution): 118 % of control

Cc1cc(C)c(B2OB(c3c(C)cc(C)cc3C)O2)c(C)c1
T/C (dose: 50.0 mg/kg/injection, schedule: Q04DX003 (ip), vehicle: Klucel (hydroxypropylcellulose) (HPC)): 95 % of control | T/C [3]: 100 % of control | T/C [4]: 95 % of control

COc1ccc2c3c1OC1C(Oc4nnnn4-c4ccccc4)C=CC4C(C2)N(C)CCC341 (stereo not drawn)
T/C (dose: 12.5 mg/kg/injection, schedule: Q04DX003 (ip), vehicle: saline): 105 % of control | T/C (dose: 25.0 mg/kg/injection, schedule: Q04DX003 (ip), vehicle: saline): 113 % of control | T/C (dose: 50.0 mg/kg/injection, schedule: Q04DX003 (ip), vehicle: saline): 99 % of control | T/C (dose: 100.0 mg/kg/injection, schedule: Q04DX003 (ip), vehicle: saline): 103 % of control | T/C (dose: 200.0 mg/kg/injection, schedule: Q04DX003 (ip), vehicle: saline): 103 % of control | T/C (dose: 400.0 mg/kg/injection, schedule: Q04DX003 (ip), vehicle: saline): 99 % of control

CCCCN(CCCC)P(=O)(N1CC1)N1CC1
T/C (dose: 16.5 mg/kg/injection, schedule: Q01DX009 (ip), vehicle: saline): 250 % of control | T/C (dose: 25.0 mg/kg/injection, schedule: Q01DX009 (ip), vehicle: saline): 118 % of control | T/C (dose: 37.5 mg/kg/injection, schedule: Q01DX009 (ip), vehicle: saline): 113 % of control

CCCCOc1ccc(OCCCCCCCCCC[N+](C)(C)C)cc1
T/C (dose: 3.13 mg/kg/injection, schedule: Q01DX009 (ip), vehicle: Klucel (hydroxypropylcellulose) (HPC)): 112 % of control | T/C (dose: 6.25 mg/kg/injection, schedule: Q01DX009 (ip), vehicle: Klucel (hydroxypropylcellulose) (HPC)): 106 % of control | T/C (dose: 12.5 mg/kg/injection, schedule: Q01DX009 (ip), vehicle: Klucel (hydroxypropylcellulose) (HPC)): 105 % of control

CS(=O)c1ncc2cnccn12 (stereo not drawn)
T/C (dose: 25.0 mg/kg/injection, schedule: Q04DX003 (ip), vehicle: water): 108 % of control | T/C (dose: 50.0 mg/kg/injection, schedule: Q04DX003 (ip), vehicle: water): 100 % of control | T/C (dose: 100.0 mg/kg/injection, schedule: Q01DX009 (ip), vehicle: water): 104 % of control | T/C (dose: 100.0 mg/kg/injection, schedule: Q04DX003 (ip), vehicle: water): 108 % of control | T/C (dose: 200.0 mg/kg/injection, schedule: Q01DX009 (ip), vehicle: water): 106 % of control

Cc1ccc(C(CCC#N)OC(C)C)cc1 (stereo not drawn)
T/C (dose: 100.0 mg/kg/injection, schedule: Q01DX009 (ip), vehicle: Klucel (hydroxypropylcellulose) (HPC)): 86 % of control | T/C [3]: 100 % of control | T/C (dose: 200.0 mg/kg/injection, schedule: Q01DX009 (ip), vehicle: Klucel (hydroxypropylcellulose) (HPC)): 109 % of control | T/C [4]: 109 % of control | T/C (dose: 400.0 mg/kg/injection, schedule: Q01DX009 (ip), vehicle: Klucel (hydroxypropylcellulose) (HPC)): 113 % of control | T/C (dose: 400.0 mg/kg/injection, schedule: Q04DX003 (ip), vehicle: Klucel (hydroxypropylcellulose) (HPC)): 109 % of control

CCOCc1ccc(OCc2ccccc2)cc1
T/C [1]: 94 % of control | T/C [2]: 108 % of control | T/C (dose: 200.0 mg/kg/injection, schedule: Q01DX009 (ip), vehicle: saline with Tween-80): 119 % of control

NNC(=O)C1CC2C=CCC(C2)C1 (stereo not drawn)
T/C (dose: 50.0 mg/kg/injection, schedule: Q01DX001 (ip), vehicle: saline with Tween-80): 100 % of control | T/C (dose: 100.0 mg/kg/injection, schedule: Q01DX001 (ip), vehicle: saline with Tween-80): 91 % of control | T/C (dose: 200.0 mg/kg/injection, schedule: Q01DX001 (ip), vehicle: saline with Tween-80): 91 % of control

Cc1nc(N)c(N)nc1C
T/C (dose: 12.5 mg/kg/injection, schedule: Q01DX009 (ip), vehicle: saline with Tween-80): 95 % of control | T/C (dose: 25.0 mg/kg/injection, schedule: Q01DX009 (ip), vehicle: saline with Tween-80): 88 % of control | T/C (dose: 25.0 mg/kg/injection, schedule: Q04DX003 (ip), vehicle: saline with Tween-80): 102 % of control | T/C [1]: 107 % of control | T/C (dose: 50.0 mg/kg/injection, schedule: Q04DX003 (ip), vehicle: saline with Tween-80): 101 % of control

OCn1cnc2c(SC3CCCC3)ncnc21
T/C (dose: 75.0 mg/kg/injection, schedule: Q01DX009 (ip), vehicle: Klucel (hydroxypropylcellulose) (HPC)): 120 % of control

NC(=S)N/N=C\c1ncccc1OCc1cccc(N)c1
T/C (dose: 25.0 mg/kg/injection, schedule: Q01DX009 (ip), vehicle: other): 165 % of control | T/C (dose: 50.0 mg/kg/injection, schedule: Q01DX009 (ip), vehicle: other): 150 % of control | T/C (dose: 100.0 mg/kg/injection, schedule: Q01DX009 (ip), vehicle: other): 163 % of control | T/C (dose: 200.0 mg/kg/injection, schedule: Q01DX009 (ip), vehicle: other): 182 % of control
